Assay results published in patent US7205433B2, “Crystal of amino acid ester salt and process for producing the same” (Ajinomoto Co., Inc., priority 2002, dated 2007).

Tests used:
Type in all cases: physicochemical
[1] = Experimental Example 2: comparison of hygroscopicity by weight gain over time (62 to 64% RH); settings: 24° C.
Description: In the same manner as in Experimental Example 1, L-Ala-OEt MsOH salt and L-Ala-OMe HCl salt were measured into a glass container in an amount of 0.6 g each, left under conditions of temperature: 24° C., humidity: 62 to 64% RH, and then the hygroscopicity was compared based on the weight gain with the lapse of time.

[2] = Experimental Example 1: comparison of hygroscopicity by weight gain over time (44 to 45% RH); settings: 22 to 24° C.
Description: L-Ala-OEt HCl salt and L-Ala-OEt MsOH salt were measured into in a glass container in an amount of 1.6 g each, dried in vacuo at 30° C. for 5 hours, left under conditions of temperature: 22 to 24° C., humidity: 44 to 45% RH, and then the hygroscopicity was compared based on the weight gain over the lapse of time. […] The liquefied portion increased with the lapse of time, and the entire salt became liquid 750 minutes later with no observable crystal.

[3] = Experimental Example 5: comparison of hygroscopicity by weight gain over time (60 to 66% RH); settings: 24 EC
Description: The L-Ala-OMe HCl salt, L-Ala-OEt MsOH salt, L-Ala-OEt BsOH salt, L-Ala-OEt 4-CBS salt, L-Ala-OEt 4-EBS salt, L-Ala-OEt 2,4-DMBS salt, and L-Ala-OEt 2,5-DMBS salt were measured in an amount of about 0.3 g each, left standing in a thermostatic chamber at a temperature of 24 EC and a humidity of 60 to 66% RH, and the hygroscopicity was compared based on the weight gain with the lapse of time.

[4] = Experimental Example 4: comparison of hygroscopicity by weight gain over time (40 to 46% RH); settings: 24° C.
Description: The L-Ala-OEt HCl salt, L-Ala-OEt MsOH salt, L-Ala-OEt BsOH salt, L-Ala-OEt 4-CBS salt, L-Ala-OEt 4-EBS salt, L-Ala-OEt 2,4-DMBS salt, and L-Ala-OEt 2,5-DMBS salt were measured in an amount of about 0.3 g each, left standing in a thermostatic chamber at a temperature of 24° C. and a humidity of 40 to 46% RH, and the hygroscopicity was compared based on the weight gain with the lapse of time. A part of the crystal of the L-Ala-OEt HCl salt was liquefied in 30 minutes, and the liquefied portion increased thereafter with the lapse of time. After 100 minutes, the whole mass became like a sherbet.

[5] = Comparative Example 9: crystals left standing at room temperature; settings: left standing at room temperature for a while
Description: The crystals were separated and dried to give L-alanine methyl ester benzenesulfonate (L-Ala-OMe BsOH salt) crystals. The crystals were left standing at room temperature for a while.

CCOC(=O)[C@H](C)N.CS(=O)(=O)O [L-Ala-OEt MsOH salt, L-alanine ethyl ester methanesulfonate]
weight increase rate (% relative to initial weight) ([1]; 0 minutes): 0.00% | weight increase rate (% relative to initial weight) ([1]; 10 minutes): 0.18% | weight increase rate (% relative to initial weight) ([1]; 20 minutes): 0.26% | weight increase rate (% relative to initial weight) ([1]; 35 minutes): 0.39% | weight increase rate (% relative to initial weight) ([1]; 50 minutes): 0.53% | weight increase rate (% relative to initial weight) ([1]; 65 minutes): 0.55% | weight increase rate (% relative to initial weight) ([1]; 80 minutes): 0.63% | weight increase rate (% relative to initial weight) ([1]; 95 minutes): 0.70% | weight increase rate (% relative to initial weight) ([1]; 110 minutes): 0.78% | weight increase rate (% relative to initial weight) ([1]; 125 minutes): 0.94% | weight increase rate (% relative to initial weight) ([1]; 140 minutes): 1.01% | weight increase rate (% relative to initial weight) ([1]; 155 minutes): 1.00% | weight increase rate (% relative to initial weight) ([1]; 170 minutes): 1.13% | weight increase rate (% relative to initial weight) ([1]; 185 minutes): 1.26% | weight increase rate (% relative to initial weight) ([1]; 200 minutes): 1.32% | change in weight with the lapse of time ([1]; up to 200 minutes): not much change in weight | liquefaction ([1]; up to 200 minutes): liquefaction was not observed | weight increase rate (% relative to initial weight) ([2]; 0 minutes): 0.00% | weight increase rate (% relative to initial weight) ([2]; 1 minutes): 0.08% | weight increase rate (% relative to initial weight) ([2]; 2 minutes): 0.11% | weight increase rate (% relative to initial weight) ([2]; 3 minutes): 0.17% | weight increase rate (% relative to initial weight) ([2]; 4 minutes): 0.17% | weight increase rate (% relative to initial weight) ([2]; 6 minutes): 0.23% | weight increase rate (% relative to initial weight) ([2]; 10 minutes): 0.36% | weight increase rate (% relative to initial weight) ([2]; 15 minutes): 0.41% | weight increase rate (% relative to initial weight) ([2]; 25 minutes): 0.48% | weight increase rate (% relative to initial weight) ([2]; 35 minutes): 0.56% | weight increase rate (% relative to initial weight) ([2]; 50 minutes): 0.58% | weight increase rate (% relative to initial weight) ([2]; 60 minutes): 0.59% | weight increase rate (% relative to initial weight) ([2]; 75 minutes): 0.63% | weight increase rate (% relative to initial weight) ([2]; 90 minutes): 0.57% | weight increase rate (% relative to initial weight) ([2]; 120 minutes): 0.58% | weight increase rate (% relative to initial weight) ([2]; 150 minutes): 0.58% | weight increase rate (% relative to initial weight) ([2]; 180 minutes): 0.61% | weight increase rate (% relative to initial weight) ([2]; 750 minutes): 1.16% | change in weight with the lapse of time ([2]; up to 750 minutes): almost no change in weight | liquefaction ([2]; up to 750 minutes): liquefaction was not observed | weight increase rate (%) ([3]; 0 minutes): 0.00% | weight increase rate (%) ([3]; 10 minutes): 0.32% | weight increase rate (%) ([3]; 20 minutes): 0.35% | weight increase rate (%) ([3]; 35 minutes): 0.38% | weight increase rate (%) ([3]; 50 minutes): 0.38% | weight increase rate (%) ([3]; 65 minutes): 0.41% | weight increase rate (%) ([3]; 80 minutes): 0.44% | weight increase rate (%) ([3]; 95 minutes): 0.44% | weight increase rate (%) ([3]; 110 minutes): 0.48% | weight increase rate (%) ([3]; 125 minutes): 0.44% | weight increase rate (%) ([3]; 140 minutes): 0.48% | weight increase rate (%) ([3]; 155 minutes): 0.48% | weight increase rate (%) ([3]; 170 minutes): 0.51% | weight increase rate (%) ([3]; 185 minutes): 0.48% | weight increase rate (%) ([3]; 200 minutes): 0.51% | weight increase rate (%) ([4]; 0 minutes): 0.00% | weight increase rate (%) ([4]; 15 minutes): 0.03% | weight increase rate (%) ([4]; 30 minutes): 0.03% | weight increase rate (%) ([4]; 45 minutes): 0.00% | weight increase rate (%) ([4]; 60 minutes): 0.19% | weight increase rate (%) ([4]; 75 minutes): 0.35% | weight increase rate (%) ([4]; 90 minutes): 0.35% | weight increase rate (%) ([4]; 120 minutes): 0.42% | weight increase rate (%) ([4]; 150 minutes): 0.39% | weight increase rate (%) ([4]; 180 minutes): 0.55%

COC(=O)[C@H](C)N.O=S(=O)(O)c1ccccc1 [L-Ala-OMe BsOH salt, L-alanine methyl ester benzenesulfonate]
stability of the crystals [5]: the crystals were liquefied and failed to provide stable crystals
